Data from PubChem BioAssay AID330 (DTP/NCI, 2004).
Toxic doses and inconclusive results are not listed. How the source made its calls: active means survival T/C of 150% or more; inactive means T/C below 125% in these data.

Test system: P388 leukemia ip, CD2F1 mice, survival T/C
Assay: NCI In Vivo Anticancer Drug Screen. Data for tumor model P388 Leukemia (intraperitoneal) in CD2F1 (CDF1) mice
Conditions: endpoint: median survival time, higher = longer survival
Procedure, shortened: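 Mice carrying the transplanted tumor received test compound or vehicle. Survival was recorded in each group, and the value is the treated-group measurement divided by that of the vehicle-treated control group.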

[1] = dose: 50.0 mg/kg/injection, schedule: Q01DX009 (ip), vehicle: saline with Tween-80
[2] = dose: 100.0 mg/kg/injection, schedule: Q01DX009 (ip), vehicle: saline with Tween-80
[3] = dose: 200.0 mg/kg/injection, schedule: Q01DX009 (ip), vehicle: saline with Tween-80
[4] = dose: 60.0 mg/kg/injection, schedule: Q01DX005 (ip), vehicle: saline with Tween-80
[5] = dose: 120.0 mg/kg/injection, schedule: Q01DX005 (ip), vehicle: saline with Tween-80
[6] = dose: 240.0 mg/kg/injection, schedule: Q01DX005 (ip), vehicle: saline with Tween-80
[7] = dose: 100.0 mg/kg/injection, schedule: Q01DX001 (ip), vehicle: saline with Tween-80
[8] = dose: 200.0 mg/kg/injection, schedule: Q01DX001 (ip), vehicle: saline with Tween-80
[9] = dose: 400.0 mg/kg/injection, schedule: Q01DX001 (ip), vehicle: saline with Tween-80

Measured: T/C

CC1=CC(=N/Cl)/C=CC/1=N/Cl
inactive: dose: 50.0 mg/kg/injection, schedule: Q01DX005 (ip), vehicle: saline 109 % of control | dose: 100.0 mg/kg/injection, schedule: Q01DX005 (ip), vehicle: saline 111 % of control | dose: 200.0 mg/kg/injection, schedule: Q01DX005 (ip), vehicle: saline 114 % of control

C(CCSCCCCSCCCCCC1=NCCN1)CCC1=NCCN1
inactive: dose: 50.0 mg/kg/injection, schedule: Q01DX005 (ip), vehicle: Klucel (hydroxypropylcellulose) (HPC) 94 % of control | dose: 100.0 mg/kg/injection, schedule: Q01DX005 (ip), vehicle: Klucel (hydroxypropylcellulose) (HPC) 95 % of control | dose: 200.0 mg/kg/injection, schedule: Q01DX005 (ip), vehicle: Klucel (hydroxypropylcellulose) (HPC) 99 % of control

CC(C)(C)c1cc2c(c(C(C)(C)C)c1)[O][Sb]([c]1ccccc1)([c]1ccccc1)([c]1ccccc1)[NH]2
inactive: [1] 110 % of control | [2] 115 % of control

O=[N+]([O-])c1ccc(SC2=NCCCN2)c(Cl)c1
inactive: [1] 102 % of control | [2] 100 % of control | [3] 105 % of control

CCOCC1COc2c(cc3[nH]cc(C(=O)OCC)c(=O)c3c2Cl)O1 (stereo not given)
inactive: [1] 111 % of control | [2] 110 % of control | [3] 101 % of control

Cc1nc(C2(O)C(C3COC(C)(C)O3)OC3OC(C)(C)OC32)no1 (stereo not given)
inactive: [4] 100 % of control | [5] 100 % of control | [6] 100 % of control

CC(=O)OC1c2c(C)coc2C(=O)C23OC2CCC(C)C13C (stereo not given)
inactive: dose: 5.0 mg/kg/injection, schedule: Q01DX009 (ip), vehicle: saline with Tween-80 100 % of control | dose: 10.0 mg/kg/injection, schedule: Q01DX009 (ip), vehicle: saline with Tween-80 102 % of control | dose: 20.0 mg/kg/injection, schedule: Q01DX009 (ip), vehicle: saline with Tween-80 102 % of control | dose: 40.0 mg/kg/injection, schedule: Q01DX009 (ip), vehicle: saline with Tween-80 96 % of control

Cc1nc(N)c2nonc2n1
inactive: dose: 25.0 mg/kg/injection, schedule: Q04DX003 (ip), vehicle: suspension in saline 98 % of control | dose: 50.0 mg/kg/injection, schedule: Q04DX003 (ip), vehicle: suspension in saline 103 % of control | dose: 100.0 mg/kg/injection, schedule: Q04DX003 (ip), vehicle: suspension in saline 94 % of control | dose: 200.0 mg/kg/injection, schedule: Q04DX003 (ip), vehicle: suspension in saline 95 % of control

N#Cc1c(Cl)cccc1N1CCSCC1
inactive: dose: 60.0 mg/kg/injection, schedule: Q01DX005 (ip), vehicle: Klucel (hydroxypropylcellulose) (HPC) 94 % of control | dose: 120.0 mg/kg/injection, schedule: Q01DX005 (ip), vehicle: Klucel (hydroxypropylcellulose) (HPC) 102 % of control | dose: 240.0 mg/kg/injection, schedule: Q01DX005 (ip), vehicle: Klucel (hydroxypropylcellulose) (HPC) 100 % of control

CN1c2ccccc2S(=O)(=O)n2nnnc21
inactive: [7] 101 % of control | [8] 101 % of control | [9] 97 % of control

CCCCNc1cc(C(F)(F)F)cc(N)c1N
inactive: dose: 50.0 mg/kg/injection, schedule: Q01DX005 (ip), vehicle: saline + Tween-80 + alcohol 105 % of control | dose: 100.0 mg/kg/injection, schedule: Q01DX005 (ip), vehicle: saline + Tween-80 + alcohol 108 % of control | dose: 200.0 mg/kg/injection, schedule: Q01DX005 (ip), vehicle: saline + Tween-80 + alcohol 109 % of control

CCCn1c(Cl)c(/C=N\Nc2cccc([N+](=O)[O-])c2)c2ccccc21
inactive: [7] 91 % of control | [8] 92 % of control | [9] 91 % of control

CCCCNc1ccc(-c2c(N)nc(N)nc2CC)cc1N
inactive: dose: 100.0 mg/kg/injection, schedule: Q01DX001 (ip), vehicle: Klucel (hydroxypropylcellulose) (HPC) 101 % of control | dose: 200.0 mg/kg/injection, schedule: Q01DX001 (ip), vehicle: Klucel (hydroxypropylcellulose) (HPC) 93 % of control | dose: 400.0 mg/kg/injection, schedule: Q01DX001 (ip), vehicle: Klucel (hydroxypropylcellulose) (HPC) 94 % of control

Nc1nc[nH]c(=O)c1NC(=O)c1cccc([N+](=O)[O-])c1
inactive: dose: 12.5 mg/kg/injection, schedule: Q01DX009 (ip), vehicle: saline with Tween-80 101 % of control | dose: 25.0 mg/kg/injection, schedule: Q01DX009 (ip), vehicle: saline with Tween-80 100 % of control | [1] 96 % of control | [2] 99 % of control

Cc1ccc(Cl)cc1NC(=O)Nc1nccs1
inactive: dose: 25.0 mg/kg/injection, schedule: Q01DX009 (ip), vehicle: Klucel (hydroxypropylcellulose) (HPC) 93 % of control | dose: 50.0 mg/kg/injection, schedule: Q01DX009 (ip), vehicle: Klucel (hydroxypropylcellulose) (HPC) 92 % of control | dose: 100.0 mg/kg/injection, schedule: Q01DX009 (ip), vehicle: Klucel (hydroxypropylcellulose) (HPC) 109 % of control

CCOC(=O)C(C#N)C(=N)C1CC(C)OC1=O (stereo not given)
inactive: [4] 100 % of control | [5] 100 % of control | [6] 98 % of control
